The target of data set [1] is T1, Human thymidine kinase 1 (TK1) (Homo sapiens, UniProt P04183).
T1 construct: His tag (from pET28b(+)) (N); made in house; host or cells: E. coli BL21-codon plus
T1 sequence (P04183 1-234): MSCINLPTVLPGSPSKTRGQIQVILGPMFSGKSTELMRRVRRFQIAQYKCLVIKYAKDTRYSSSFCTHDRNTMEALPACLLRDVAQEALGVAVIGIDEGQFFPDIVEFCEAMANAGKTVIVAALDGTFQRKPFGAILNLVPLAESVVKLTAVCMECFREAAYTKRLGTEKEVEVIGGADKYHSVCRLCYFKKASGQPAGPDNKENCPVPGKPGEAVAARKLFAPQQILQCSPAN
Briefly: Thymidine kinase coupled (kinetic) ATP depletion assay. Particulars: initial velocity relative to thymidine; 100 μM conjugate. The data set is classed as biochemical. Here is the method:
Thymidine kinase, viral thymidine kinase, TK-1 deoxycytidine kinase, and deoxyguanosine kinase activities are determined by subjecting a first end of a linker used in synthesizing linker-substrate constructs to a first test. The first test may involve observing ADP formation, an obligatory co-product of phospho group transfer from ATP which is catalyzed by the kinase to the C5′ hydroxyl group or its equivalent in the nucleoside or nucleoside analog. Formation of ADP is followed by a coupled enzyme assay well known in the art. ADP, formed from kinase phosphorylation, is used by pyruvate kinase to generate pyruvate from phosphoenolpyruvate which in turn is converted to lactate by lactate dehydrogenase. The lactate results in the consumption of NADH which is followed spectrophotometrically. The rate of nucleoside phosphorylation is then directly related to the rate of decrease in the observed NADH signal.
TK1 was amplified using PCR with forward primer 5′-[…]-3′ and reverse primer 5′-[…]-3′. The PCR product was digested with Nde I and Hind III. An N-terminal His-tagged TK1 construct, TK1/pET28b(+), was generated by subcloning TK1 into the Nde I and Hind III sites of prokaryotic expression vector pET28b (+) (Novagen, San Diego, Calif.). TK1 was expressed from TK1/pET28b(+) using E. coli strain BL21-codon plus (Stratagene, San Diego, Calif.) and purified by Ni column chromatography.
A coupled (kinetic) ATP depletion assay was developed to measure thymidine kinase activity. The reaction contained 100 mM Tris HCl, pH 7.5, 20 mM MgCl2, 100 mM KCl, 0.4 mM PEP, 0.2 mM NADH, Pyruvate Kinase (0.7 units)/Lactate Dehydrogenase (1.0 unit) (Sigma #PO294), 2.5-10 μg Thymidine Kinase, 100 μM thymidine or thymidine-drug conjugate in a volume of 75 μl. ATP (5 mM in 25 μl H2O) was added to initiate the reaction and the velocity of ATP depletion was monitored at 340 nm continuously for 15 minutes.

In the next data set the test system is tubulin. The experiment in a line: Fluorescence-based microtubule polymerization assay (MPA). Particulars: mean percentage of paclitaxel or vinblastine activity; 0.75-10 micromolar. The class given is biochemical. The procedure, abridged: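 Tubulin polymerization was followed by fluorescence (ex 360/em 405 nm) in a commercial kit with 1 mg/ml BSA added to every assay, glycerol being omitted for paclitaxel conjugates. Parent drugs and conjugates were tested at 0.75, 1.5, 3 and 10 micromolar final. Curves from the linear range of the dose responses were compared.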

Data set [2] relates to MCF-7 breast carcinoma. The experiment in a line: Cytotoxicity assay (monolayer), MCF-7. The class given is cell-based. The following applies: Homo sapiens, MCF7. Here is the method:
(§1) Statistical Assoc., 81, 991-999, 1986.
(§2) Monolayer assays with tumor cell lines (MCF-7 breast carcinoma and HT-29 colorectal carcinoma from ATCC) were carried out in triplicate in 96-well plates with RPMI1640 medium containing 5% fetal bovine serum, 100 U/ml penicillin and 100 μg/ml streptomycin. Normal human foreskin fibroblasts (HFF #CC-2509) were from Cambrex and were cultured in FGM-2 medium. Exponentially growing cells (5,000 MCF-7 or HT-29; 1,500 HFF) were plated in 100 μl medium and incubated overnight (5% CO2, 37° C.). Compounds (20 pM to 20 μM final concentration, 6-8 doses) and vehicle (DMSO) controls were added and the incubation was continued for an additional 72 hours. Final cell density was determined by incubating cultures with 25 μl AlamarBlue reagent (BioSource, Camarillo, Calif.) for 4 hours, followed by determination of fluorescence at excitation of 544 nm and emission of 590 nm with a SpectroMax Gemini EM fluorescence plate reader (Molecular Devices, Sunnyvale, Calif.). EC50 values were generated from dose-response curves by a 4-parameter method using Softmax PRO software. Mean EC50s (±SD) represent the average of all tests carried out for all lots of a given compound. […] Statistical Assoc., 81, 991-999 (1986).

Data set [3] concerns HT-29 colorectal carcinoma. The experiment in a line: Cytotoxicity assay (monolayer), HT-29. The data set is classed as cell-based. The following applies: Homo sapiens. Here is the method: as §1, §2
The test system of a further data set is HUVEC. Briefly: Cytotoxicity assay (monolayer), HUVEC. The class given is cell-based. Particulars: Homo sapiens, read-out: HUVEC (EC50 Ave) ML.
The subject of data set [4] is Normal human foreskin fibroblasts (HFF). Briefly: Cytotoxicity assay (monolayer), HFF. The data set is classed as cell-based. The following applies: Fibroblast. Here is the method:
as §1, §2

Data set [5] is described as follows: Serum stability in RPMI1640 medium containing 10% fetal bovine serum. The class given is in vitro ADME. Here is the method:
The stability of conjugates was measured in RPMI1640 cell culture medium containing 10% fetal bovine serum. The serum-containing medium was pre-warmed at 37° C. for 3 min prior to addition of test articles. Test articles, prepared in DMSO as 5 mM stocks, were added to the cell culture media to a final concentration of […]. Aliquots ([…]) were withdrawn in triplicate at 0, 4, 8, 24 and 72 hours and combined with the same volume of ice-cold acetonitrile to terminate the reaction. The mixture was centrifuged at 2,000×g for 10 minutes. One part of the supernatant was mixed with four parts of deionized water to bring down the percentage of organic solvent. The diluted samples were then assayed by LC/MS for the test article. The natural log of the percent remaining was plotted versus time. A linear fit was used to determine the rate constant. The fit was truncated after the percent of remaining test article was less than 10%. The elimination half-lives associated with the disappearance of test articles were determined to compare their relative stability. The assays were carried out by Absorption Systems (Exton, Pa.).

For data set [6], the system named is MCF-7 breast carcinoma. The experiment in a line: Cytotoxicity assay (soft agar), MCF-7. The following applies: Homo sapiens.
The subject of data set [7] is HT-29 colorectal carcinoma. Briefly: Cytotoxicity assay (soft agar), HT-29. Particulars: Homo sapiens.
The target of the next data set is T2, Topoisomerase II (Homo sapiens, UniProt P11388).
T2 construct: purchased TopoGEN Inc. (Columbus, Ohio) 1009-1
Briefly: Topoisomerase II assay. The class given is biochemical. Particulars: doxorubicin and its conjugates; percent activity of Doxorubicin. How it is done:
In certain embodiments, activity of doxorubicin conjugates was assayed by monitoring alteration in the ability of Topoisomerase II, by electrophoresis, to catalyze the formation of relaxed conformation DNA from a super-coiled plasmid.
Specifically the kit was used to assay whether Doxorubicin conjugates altered the ability of Topoisomerase II to catalyze the formation of relaxed conformation DNA from a super-coiled plasmid. Doxorubicin conjugates were compared directly to Doxorubicin at 10, 3, 1, 0.3, 0.1 and 0.03 micromolar concentrations. The quantity of relaxed conformation DNA was quantified from an agarose gel on which is it is separated from the super-coiled DNA by standard electrophoresis. […] The results are presented in terms of percent activity of Doxorubicin.

A further data set relates to MCF7. The experiment in a line: Cytotoxicity assay, MCF7 SSA (SSA not explained). Particulars: Homo sapiens. The data set is classed as cell-based.
The next data set concerns HT29. The experiment in a line: Cytotoxicity assay, HT29 SSA (SSA not explained). The following applies: Homo sapiens, HT-29; read-out: HT29 (EC50 Ave) SSA. The data set is classed as cell-based.
Data set [8] relates to breast carcinoma, colon carcinoma and leukemia. Briefly: Cytotoxicity of drug-thymidine conjugates (Example 22). The class given is cell-based.
Where [9] appears, read: monolayer, 72 hours, AlamarBlue, read-out: MCF7 (EC50 Ave) ML.
Setting [10] is: monolayer, 72 hours, AlamarBlue, read-out: HT29 (EC50 Ave) ML.
[11] abbreviates: monolayer, 72 hours, AlamarBlue, read-out: HFF (EC50 Ave) ML.
Setting [12] is: MCF7, read-out: MCF7 (EC50 Ave) SA.
Setting [13] is: HT-29, read-out: HT29 (EC50 Ave) SA.

Like-named read-outs stand apart in the source and are kept apart here.

T2 sequence (P11388 whole entry): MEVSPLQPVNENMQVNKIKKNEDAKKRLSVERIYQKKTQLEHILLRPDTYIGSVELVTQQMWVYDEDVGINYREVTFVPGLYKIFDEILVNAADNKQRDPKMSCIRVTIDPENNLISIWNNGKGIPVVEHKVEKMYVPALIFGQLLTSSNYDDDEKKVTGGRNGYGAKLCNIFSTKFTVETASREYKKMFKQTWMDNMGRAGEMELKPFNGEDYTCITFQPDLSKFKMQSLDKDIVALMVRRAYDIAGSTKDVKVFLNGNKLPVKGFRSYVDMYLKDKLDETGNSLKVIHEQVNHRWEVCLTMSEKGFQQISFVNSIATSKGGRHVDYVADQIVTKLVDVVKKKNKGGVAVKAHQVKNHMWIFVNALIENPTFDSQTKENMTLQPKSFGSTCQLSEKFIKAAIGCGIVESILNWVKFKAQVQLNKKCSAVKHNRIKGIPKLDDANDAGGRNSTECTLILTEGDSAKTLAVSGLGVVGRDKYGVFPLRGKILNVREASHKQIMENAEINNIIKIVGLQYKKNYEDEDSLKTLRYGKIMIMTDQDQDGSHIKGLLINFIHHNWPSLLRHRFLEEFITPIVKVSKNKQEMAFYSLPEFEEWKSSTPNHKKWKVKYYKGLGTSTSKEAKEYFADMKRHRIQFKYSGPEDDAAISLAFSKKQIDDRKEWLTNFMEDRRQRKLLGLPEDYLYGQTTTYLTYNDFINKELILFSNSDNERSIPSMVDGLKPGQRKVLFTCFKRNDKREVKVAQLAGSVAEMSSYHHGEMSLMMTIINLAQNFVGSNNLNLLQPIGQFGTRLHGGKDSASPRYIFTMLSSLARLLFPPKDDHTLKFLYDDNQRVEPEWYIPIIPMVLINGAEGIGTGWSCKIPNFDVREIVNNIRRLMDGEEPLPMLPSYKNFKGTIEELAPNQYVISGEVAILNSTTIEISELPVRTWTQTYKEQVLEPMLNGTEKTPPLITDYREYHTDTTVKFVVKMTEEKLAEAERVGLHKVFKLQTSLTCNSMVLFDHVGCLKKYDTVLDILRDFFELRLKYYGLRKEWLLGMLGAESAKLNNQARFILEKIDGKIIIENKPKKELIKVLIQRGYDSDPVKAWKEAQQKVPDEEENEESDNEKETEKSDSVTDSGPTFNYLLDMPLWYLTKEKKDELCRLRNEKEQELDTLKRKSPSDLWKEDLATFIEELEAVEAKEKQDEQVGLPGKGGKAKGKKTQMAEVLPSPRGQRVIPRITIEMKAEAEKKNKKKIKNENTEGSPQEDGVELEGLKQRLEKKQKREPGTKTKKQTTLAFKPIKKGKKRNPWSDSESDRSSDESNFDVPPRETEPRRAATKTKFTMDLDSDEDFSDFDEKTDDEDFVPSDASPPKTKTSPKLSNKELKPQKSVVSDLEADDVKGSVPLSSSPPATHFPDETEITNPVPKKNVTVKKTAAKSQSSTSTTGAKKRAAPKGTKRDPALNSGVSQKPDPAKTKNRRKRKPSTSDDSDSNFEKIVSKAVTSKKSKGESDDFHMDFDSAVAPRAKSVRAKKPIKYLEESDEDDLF

As usually defined, the EC50 is the midpoint of the concentration-response curve. By half-life is commonly meant how long it takes for the measured level to halve. As for `CC(=O)O[C@H]1C(=O)C2(C)[C@@H](OC(=O)NCCCCCCn3c(=O)c(C)cn([C@H]4CC(O)[C@@H](CO)O4)c3=O)CC3OC[C@]3(OC(C)=O)[C@H]2[C@H](OC(=O)c2ccccc2)[C@]2(O)C[C@H](OC(=O)[C@H](O)[C@@H](NC(=O)c3ccccc3)c3ccccc3)C(C)=C1C2(C)C` (stereo partly shown) [PXL-7Ca-ALK(6)-N3-THY], the “Ave. TK1 Kinase Act.” value in data set [1] is given as “A (A<20)”. The “Ave. MPA Act” value with tubulin is on record as “B (B=60-100)”. Also, the EC50 is 120 ± 73 nM in the data set on MCF-7 breast carcinoma [2] (mean ± SD, read-out: MCF-7 Monolayer EC50); less than 100 nM in the data set with MCF-7 breast carcinoma [2] (setting [9]); 258 ± 129 nM in data set [3] (mean ± SD, read-out: HT-29 Monolayer EC50); 100 to 1000 nM in data set [3] (setting [10]); 100 to 1000 nM in the data set on HUVEC; 457 ± 310 nM in data set [4] (mean ± SD, read-out: HFF Monolayer EC50). The EC50 in data set [4] (setting [11]) was 100 to 1000 nM; in the data set with MCF-7 breast carcinoma [6] (setting [12]), less than 100 nM; in the data set with MCF-7 breast carcinoma [6] (MCF7, read-out: MCF-7 Soft Agar EC50), 40 ± 41 nM; in data set [7] (setting [13]) it was 100 to 1000 nM; in [7] (HT-29, read-out: HT-29 Soft Agar EC50) it was 120 ± 4 nM. Besides, the “Relative Percent Remaining at 0 hr” value in [5] (37° C., medium with 10% fetal bovine serum, 0 hr) came out at 100%. The “Relative Percent Remaining at 4 hr” value in data set [5] (37° C., medium with 10% fetal bovine serum, 4 hr) is 84%. In [5] (37° C., medium with 10% fetal bovine serum, 8 hr), the “Relative Percent Remaining at 8 hr” value worked out at 90%. In addition, in [5] (37° C., medium with 10% fetal bovine serum, 24 hr), the “Relative Percent Remaining at 24 hr” value was found to be 80%. The “Relative Percent Remaining at 72 hr” value in data set [5] (37° C., medium with 10% fetal bovine serum, 72 hr) worked out at 38%. In data set [5] (bovine, serum), the half-life was 55 h.
For `COc1cccc2c1C(=O)c1c(O)c3c(c(O)c1C2=O)C[C@@](O)(C(=O)CO)C[C@@H]3OC1CC(NCCCN2C(=O)CC(SCCC(=O)NCCCCCCn3c(=O)c(C)cn([C@H]4CC(O)[C@@H](CO)O4)c3=O)C2=O)C(O)C(C)O1` (stereo partly shown) [DOX-3′ALK-MALa(17)-N3-THY], the “Ave. TK1 Kinase Act.” value in [1] is reported as “A (A<20)”. Further, at Topoisomerase II, the “Ave. MPA Act (doxorubicin)” value was “A (A<60)”. Besides, the EC50 (in the data set on MCF-7 breast carcinoma [2] (setting [9]); in the data set with HUVEC; in data set [4] (setting [11])) was greater than 1000 nM in each case.
Turning to `COc1cccc2c1C(=O)c1c(O)c3c(c(O)c1C2=O)C[C@@](O)(C(=O)CO)C[C@@H]3O[C@H]1C[C@H](N)[C@H](O)[C@H](C)O1` [Doxorubicin], in data set [1], the “Ave. TK1 Kinase Act.” value is “A (A<20)”. In addition, the “Ave. MPA Act (doxorubicin)” value at Topoisomerase II is “C (C>100)”. Besides, the EC50 in the data set on MCF-7 breast carcinoma [2] (setting [9]) was less than 100 nM; in [3] (setting [10]) it was 100 to 1000 nM; with HUVEC it was less than 100 nM; in data set [4] (setting [11]), less than 100 nM.
Turning to `CC[C@]1(O)C[C@@H]2CN(CCc3c([nH]c4ccccc34)[C@@](C(=O)OC)(c3cc4c(cc3OC)N(C)[C@H]3[C@@](O)(C(=O)OC)[C@H](OC(C)=O)[C@]5(CC)C=CCN6CC[C@]43[C@@H]65)C2)C1` [Vinblastine], in data set [1], the “Ave. TK1 Kinase Act.” value is “A (A<20)”. Besides, the “Ave. MPA Act” value in the data set on tubulin is reported as “C (C>100)”. The EC50 in the data set with MCF-7 breast carcinoma [2] (setting [9]) was less than 100 nM; in data set [3] (setting [10]), less than 100 nM; in data set [4] (setting [11]) it was less than 100 nM; in the data set with MCF7 it was less than 100 nM; in the data set with HT29, less than 100 nM; in data set [8] it was 1 to 2 nM. Moreover, the EC50 (in the data set on MCF-7 breast carcinoma [6] (setting [12]); in [7] (setting [13])) was less than 100 nM throughout.
In the case of `CC[C@]1(O)CC2CN(CCc3c([nH]c4ccccc34)[C@@](C(=O)OC)(c3cc4c(cc3OC)N(C)[C@H]3C(O)(C(=O)NCCOCCOCCOCCN)[C@H](O)[C@]5(CC)C=CCN6CCC43[C@@H]65)C2)C1` (stereo partly shown) [VBL-3Am-PEG(11)-NH2, deacetylvinblastine-3-(amido-PEG-amine)], the “Ave. MPA Act” value with tubulin is “B (B=60-100)”. Further, the EC50 with MCF-7 breast carcinoma [2] (setting [9]) is 100 to 1000 nM; in data set [3] (setting [10]) it was 100 to 1000 nM; in the data set with HUVEC, less than 100 nM; in data set [4] (setting [11]), less than 100 nM; in the data set on MCF7, less than 100 nM; in the data set with HT29 it was less than 100 nM. The EC50 (in the data set with MCF-7 breast carcinoma [6] (setting [12]); in data set [7] (setting [13])) was less than 100 nM throughout.

For the origin of these results see patent publication US20050148534A1, “Small molecule compositions and methods for increasing drug efficiency using compositions thereof” (priority 2003, published 2005).
